From PubChem BioAssay AID1850 (Southern Research Specialized Biocontainment Screening …, 2009)

Tested on: Salmonella Typhi PhoP-promoter GFP reporter, fluorescence, 4 h
Experiment: PhoP regulon inhibitors, Salmonella typhi PhoP promoter GFP reporter, confirmatory (AID 1850)

SMILES | IC50 [µM]
Nc1nc(N)c(Cc2ccc(Cl)cc2Cl)c(N)n1 | 94.9
COc1ccc(Nc2cc(C)c3c(O)cccc3n2)cc1 | 10.7
O=C(Nc1nc(-c2ccccn2)cs1)c1ccc(Cl)s1 | 33.2
O=c1c(O)cccc2cc(O)c(O)c(O)c12 | 25.8
CCn1cc(C(=O)O)c(=O)c2cc(F)c(N3CCN(C(=S)Nc4ccccc4OC)CC3)cc21 | 11.1
O=C(Nc1nc(-c2ccccn2)cs1)c1ccc(Br)s1 | 23.9
O=c1c2ccccc2nc(N/N=C/c2c(O)ccc3ccccc23)n1O | 24.9
COc1ccc(CNCC(O)COc2ccc(C(C)(C)c3ccccc3)cc2)cc1 (stereo not given) | 20.9
CCc1cccc2c1Sc1ccccc1CC2N1CCNCC1 (stereo not given) | 50.8
CCN1/C(=C/c2cc[n+](C)cc2)C=Cc2cc(C)ccc21 | 36.9
O=C(NC1CCCC1)c1ccc(Br)s1 | 20.3
CC(C)(C)c1ccc(NC(=O)COC(=O)c2ccc([N+](=O)[O-])s2)cc1 | 21.6
O=C(CCc1ccccc1)NNC(=S)NC(=O)c1ccccc1 | 118
O=C(N/N=C/c1ccc([N+](=O)[O-])s1)C(O)c1ccccc1 (stereo not given) | 39.4
CCCCCc1ccc(OCCCC[n+]2ccccc2)c(CCCCC)c1 | 35.3
CCCOc1ccc(C(=O)NNC(=S)NC(C)=O)cc1 | 35.5
CN1CCN(C2Cc3cc(Cl)ccc3Sc3cc(F)ccc32)CC1 (stereo not given) | 35
Cc1ccc2nc(/C(C#N)=C\c3ccc([N+](=O)[O-])o3)[nH]c2c1 | 99.1
c1ccc(CN2CCC(Nc3nc(-c4cccs4)nc4ccccc34)CC2)cc1 | 21.5
N/C(=N\OS(=O)(=O)c1ccc(Cl)cc1)c1cccnc1 | 26.6
C#CCOCCOCCOCCNc1nc(N2CCN(C(=O)CCCCCCCCCCNC(=O)Cn3cc(C[C@@H](C)O)nn3)CC2)nc(N2CCN(C(=O)CCCCCCCCCCNC(=O)[C@@H]([C@H](C)CC)n3cc(CCCCCN)nn3)CC2)n1 | 142
CNC[C@H](CC1CCCCC1)NC[C@H](Cc1ccccc1)NCCC12CC3CC(CC(C3)C1)C2 | 12.8
O=c1c2ccccc2[nH]c2ccccc12 | 36.2
CC1CCC(C(C)C)C(OC(=O)Cn2c(-c3ccc(Cl)cc3)[n+](C)c3ccccc32)C1 (stereo not given) | 50.4
Cc1ccc(C(=O)N/N=C\c2ccc([N+](=O)[O-])s2)cn1 | 18.6
CCOC(=O)c1c(-c2ccccc2)oc2ccc(OCC(O)CNCCN(C)C)cc12 (stereo not given) | 61
O=C(CC1NCCc2ccccc21)Nc1ccc(Oc2ccccc2)cc1 (stereo not given) | 47.3
Cc1ccc(Nc2nc(N)c3ccccc3n2)cc1Cl | 21

SMILES | IC50 [µM]
O=C1C=CC(=O)N1CCCCCCN1C(=O)C=CC1=O | 95.1
O=C1C2=C(Nc3ccccc3SC2c2ccco2)c2ccccc21 (stereo not given) | 12.3
Cc1cc(C)n(/N=C/c2cc(Cl)cc(Cl)c2O)c(=O)c1 | 137
CCCCCCCCCCOC(=O)Cn1c(COc2ccc(C)cc2)[n+](C)c2ccccc21 | 10.5
Oc1ccc(C[C@@H]2CNCCN2CCCCC2CCCCC2)cc1 | 46.8
CC1(CC(=O)N/N=C/c2cc([N+](=O)[O-])c(O)cc2O)OCCO1 | 77.7
O=C(O)c1sccc1Oc1ccc(F)cc1[N+](=O)[O-] | 88.7
Cc1occc1C(=O)N/N=C/c1cccs1 | 69.7
C/C(=N\Nc1ccc2nncn2n1)c1ccccn1 | 65.7
O=C(N/N=C/c1cc(Cl)ccc1O)c1ccncc1 | 19.7
CC(=O)NC(=S)NNC(=O)c1ccc(Br)cc1 | 34.9
O=C(CCN1CCN(c2ccccc2)CC1)c1ccc(Cl)cc1 | 64.9
Cc1cc(O)c2c(c1)C(=O)C13C(=C2O)C(=O)[C@H]2[C@@H](O)[C@@H]1[C@H]1[C@H](O)[C@@H]3C(=O)C3=C(O)c4c(O)cc(C)cc4C(=O)C312 (stereo not given in full) | 5.14
CCCCCCCCCCCCCCCC[n+]1cccc(C(=O)N(CC)CC)c1 | 41.3
Cc1ccc(-c2c[n+](Cc3ccc(Cl)c(Cl)c3)c3n2CCC3)cc1 | 33.3
Cc1cc(C)c(OCCCCNCc2ccccc2)c(Cl)c1 | 74.6
Cc1cc(C2N=C(N)Nc3nc4ccccc4n32)c(C)n1-c1ccccc1Cl (stereo not given) | 32
Cc1cc(NC(=O)c2ccccc2)sc1C | 62.3
Cc1cc(NC2CCCCC2)nc(NCc2ccccc2)n1 | 34.1
CC(=O)NC(c1ccc2ccccc2c1)c1ccc2cccnc2c1O (stereo not given) | 106
CCCCCCCNC(=O)C1(CC2CC(c3cccc(Br)c3)=NO2)CCNCC1 (stereo not given) | 53.7
O=C(/C=C/c1ccccc1Cl)c1ccccc(=O)c1O | 34.8
CC(=O)NC(c1cccs1)c1cc([N+](=O)[O-])c2cccnc2c1O (stereo not given) | 31.7
O=C(NNC(=S)NC(=O)c1ccccc1)c1ccc(O)cc1 | 60.9
O=C(O)c1ccc(N2C(=O)CC(N3C(=O)/C(=C/c4ccc(Cl)cc4)SC3=S)C2=O)cc1 (stereo not given) | 34.3
CCCCCc1ccc(OCCCC[n+]2cccc(C)c2)c(CCCCC)c1 | 59.1
COc1cc([N+](=O)[O-])cc(/C=N/NC(=O)c2cccnc2)c1O | 82.4
